In paper PMC6035239, “Glycan recognition in globally dominant human rotaviruses” (Nature Communications, 2018) one finds Kd data, which are given here for 1 compound.

The test addresses T1, P[6] RV3 VP8* (Human rotavirus A, UniProt D7F7M7).
T1 construct: VP8* domain, N-terminal fragment of spike protein VP4 (polyprotein-like precursor cleaved by trypsin); N-terminal GST tag removed with thrombin; E. coli BL21(DE3)
The test can be described thus: 2D 1H-15N HSQC NMR titration, global fit of […] peaks. The format is binding. The note with it: 70 μM 15N-labeled protein, 0.5-20 mM ligand; 10 mM sodium phosphate, 50 mM NaCl, 10% D2O, pH 7; crystal structure and STD NMR also done.

What is called Kd is the concentration at which binding is half-saturated. A higher Kd goes with weaker binding. Regarding `CC(=O)N[C@H]1[C@H](O[C@H]2[C@@H](O)[C@@H](CO)O[C@@H](O[C@H]3[C@H](O)[C@@H](O)C(O)O[C@@H]3CO)[C@@H]2O)O[C@H](CO)[C@@H](O)[C@@H]1O[C@@H]1O[C@H](CO)[C@H](O)[C@H](O)[C@H]1O[C@@H]1O[C@@H](C)[C@@H](O)[C@@H](O)[C@@H]1O` (stereo partly shown) [LNFP1], binding was put at a Kd of 7.1 ± 0.2 mM.
